Source: patent US4036840A, “2-Substituted-s-triazolo[1,5a]pyrimidines” (ICN Pharmaceuticals, priority 1975, dated 1977)
“Also recorded” adds a separate entry of the source.

Legend:
anesthetized dogs = test: Hemodynamic activity in anesthetized dogs; format: in vivo, dog; settings: 10 mg/Kg/hr; vehicle DMSO (Saline for 44-46)
Experimental: Compounds 3, 41, 43-48, 51 were tested in anesthetized dogs for hemodynamic activities including cardiac output, stroke volume and heart rate. For management of low perfusion states such as cardiovascular shock and congestive heart failure, it is desirable to have increased cardiac output and increased stroke volume accompanied by a decrease or no change in heart rate.
% CHANGE OF CARDIAC OUTPUT, STROKE VOLUME AND HEART RATE AT 10 mg/Kg/hr

[1] = system: isolated guinea pig heart preparation; test: Coronary dilation in isolated guinea pig heart preparation; settings: 10 μg/ml, preliminary
[2] = system: isolated guinea pig uteri; test: Smooth muscle relaxation of isolated guinea pig uteri; settings: 2-10 μg/ml
[3] = system: 3',5'-Cyclic AMP phosphodiesterase (PDE) from kidney; test: 3',5'-Cyclic AMP phosphodiesterase (PDE) inhibition, rabbit kidney enzyme (Fraction II, low Km); format: biochemical; settings: relative to theophylline, cAMP about 1.7 × 10^-7 M, 30° C., 10 minutes, pH 7.5
[4] = system: 3',5'-Cyclic AMP phosphodiesterase (PDE) from lung; test: 3',5'-Cyclic AMP phosphodiesterase (PDE) inhibition, rabbit lung enzyme (Fraction II, low Km); format: biochemical; settings: relative to theophylline, cAMP about 1.7 × 10^-7 M, 30° C., 10 minutes, pH 7.5
[5] = Solubility noted in the PDE test (Insoluble); format: physicochemical; settings: compound not tested for PDE inhibition
Experimental: With respect to the compounds which are indicated in Tables I, II and III as being insoluble, although such compounds have not undergone the inhibitory test of Example XVI, due to the similarity in structure to compounds which were tested, it is expected that in vivo testing of the compounds in forms other than solution will readily indicate phosphodiesterase enzyme inhibitory capability.

rats [6] = test: Hypotensive activity (Weeks and Jones), mean blood pressure in rats; format: in vivo, rat; settings: oral
Experimental: Exper. Therap., 104, 646 (1960). At an oral dose of 50 mg/kg in rats, there was a % decrease in mean blood pressure at 1, 3, 6 hours of 11%, 13%, and 24%, respectively.

anesthetized dog = settings: background; cited from earlier work
[7] = system: phosphodiesterase enzymes; settings: background; cited from earlier work
rats [8] = test: Anti-inflammatory test (Winter et al.), foot volume in rats; format: in vivo, rat; settings: oral, 100 mg/kg
From the text: Following the procedure of C. A. Winter, et al as described in the Proc. Exper.

[9] = system: isolated guinea pig heart preparation; test: Inotropic effect in isolated guinea pig heart preparation; settings: 10 μg/ml

SMILES | Solubility [5] | % change of cardiac output (anesthetized dogs) | % change of heart rate (anesthetized dogs) | % change of stroke volume (anesthetized dogs) | other results
CCCc1cc(CCC)n2nc(SCc3cccnc3)nc2n1 [Compound 46, 5,7-di-n-propyl-2-(3-picolyl)thio-1,2,4-triazolo[1,5a]pyrimidine] |  | +20% | -10.9% | +35% | 
CCCc1cc(CCC)n2nc(S(=O)(=O)Cc3ccc(C)cc3)nc2n1 [Compound 48, 5,7-di-n-propyl-2-(4-methylbenzyl)sulfonyl-1,2,4-triazolo[1,5a]pyrimidine] |  | +16.4% | -14.3% | +36.1% | 
CCN(CC)c1cc(C)nc2nc(SCc3ccccc3)nn12 [Compound 27, 2-benzylthio-7-diethylamino-5-methyl-s-triazole[1,5a]pyrimidine] |  |  |  |  | coronary dilation [1]: coronary dialation; smooth muscle relaxation [2]: smooth muscle relaxants; PDE Kidney; α (I50 theophylline / I50 compound) [3]: 2.30; PDE Lung; α (I50 theophylline / I50 compound) [4]: 4.20
CCCc1cc(CCC)n2nc(SCc3ccncc3)nc2n1 [Compound 45, 5,7-di-n-propyl-2-(4-picolyl)thio-1,2,4-triazolo[1,5a]pyrimidine] |  | +27% | -8.1% | +39% | 
Cc1cc(C)n2ncc(Br)c2n1 [3-bromo-5,7-dimethylpyrazolo[1,5a]pyrimidine] |  |  |  |  | positive inotropic effect (anesthetized dog): positive inotropic effect; phosphodiesterase inhibition [7]: significantly more active than theophylline against various phosphodiesterase enzymes
Cc1cc(O)n2nc(SCc3ccccc3)nc2n1 [Compound 24, 2-benzylthio-7-hydroxy-5-methyl-s-triazolo[1,5a]pyrimidine] |  |  |  |  | coronary dilation [1]: coronary dialation; anti-inflammatory activity (rats [8]): significant activity; inhibition of foot volume (rats [8]): 43%; smooth muscle relaxation [2]: smooth muscle relaxants; PDE Kidney; α (I50 theophylline / I50 compound) [3]: 0.75; PDE Lung; α (I50 theophylline / I50 compound) [4]: 0.75
CC(=O)Cc1cc(C)nc2nc(SCc3ccccc3)nn12 [Compound 51, 2-BENZYLTHIO-5-METHYL-7-(2-ACETONYL)-1,2,4-TRIAZOLO [1,5a]PYRIMIDINE] |  | +46.2% | +3.3% | +42.0% | 
CCCc1cc(CCC)n2nc(SCc3ccccc3)nc2n1 [Compound 41, 2-benzylthio-5,7-di-n-propyl-1,2,4-triazolo[1,5a]pyrimidine] |  | +23% | -4.2% | +27% | 
Cc1cc(C)n2nc(SCc3ccccc3)nc2n1 [Compound 3, 2-benzylthio-5,7-dimethyl-s-triazolo[1,5a]pyrimidine] |  | -1% | -7% | -7% | PDE Kidney; α (I50 theophylline / I50 compound) [3]: 2.10; PDE Lung; α (I50 theophylline / I50 compound) [4]: 2.50
CCCNc1c(C(=O)OCC)cnc2nc(SCc3ccccc3)nn12 [Compound 39, 2-benzylthio-6-carbethoxy-7-n-propylamino-s-triazolo[1,5a]pyrimidine] |  |  |  |  | coronary dilation [1]: coronary dialation; PDE Kidney; α (I50 theophylline / I50 compound) [3]: 7.0; PDE Lung; α (I50 theophylline / I50 compound) [4]: 21.0
Cc1cc(C)n2nc(SCc3c(C)ccc4ccccc34)nc2n1 [Compound 17] | Insoluble |  |  |  | 
Cc1cc(N(CCO)CCO)n2nc(SCc3ccccc3)nc2n1 [Compound 29, 2-benzylthio-7-[bis(β-hydroxyethyl)amino]-5-methyl-s-triazolo[1,5a]pyrimidine] |  |  |  |  | coronary dilation [1]: coronary dialation; positive inotropic effect [9]: positive inotropic effect; smooth muscle relaxation [2]: smooth muscle relaxants; PDE Kidney; α (I50 theophylline / I50 compound) [3]: 2.30; PDE Lung; α (I50 theophylline / I50 compound) [4]: 2.10
Cn1c(=O)c2[nH]cnc2n(C)c1=O [Theophylline] |  |  |  |  | phosphodiesterase inhibition [7]: does not selectively inhibit phosphodiesterase; also recorded: not as potent as a phosphodiesterase inhibitor as is desired
CCCc1cc(CCC)n2nc(SCc3ccc(C)cc3)nc2n1 [Compound 43, 5,7-di-n-propyl-2-(4-methylbenzyl)thio-1,2,4-triazolo[1,5a]pyrimidine] |  | +34.3% | -2.8% | +3.8% | 
CCCc1cc(CCC)n2nc(SCc3ccc(C(=O)O)cc3)nc2n1 [Compound 44, 5,7-di-n-propyl-2-(4-carboxybenzyl)thio-1,2,4-triazolo[1,5a]pyrimidine] |  | +18% | +0.2% | +18% | 
Cc1cc(C)n2nc(SCc3cc4c(cc3Cl)OCO4)nc2n1 [Compound 16] | Insoluble |  |  |  | 
CCCc1cc(CCC)n2nc(S(=O)(=O)Cc3ccccc3)nc2n1 [Compound 47, 2-benzylsulfonyl-5,7-di-n-propyl-1,2,4-triazolo[1,5a]pyrimidine] |  | +35.6% | +0.2% | +34.7% | 

Continued, in another order:

Solubility [5] | SMILES | % change of cardiac output (anesthetized dogs) | % change of heart rate (anesthetized dogs) | % change of stroke volume (anesthetized dogs) | other results
Insoluble | CCOC(=O)c1cnc2nc(SCc3ccccc3)nn2c1NCCO [Compound 38] |  |  |  | 
Insoluble | Cc1cc(NN)n2nc(SCc3ccccc3)nc2n1 [Compound 32, 2-benzylthio-7-hydrazino-5-methyl-s-triazolo[1,5a]pyrimidine] |  |  |  | hypotensive activity (rats [6]; 25 mg/kg): significant hypotensive activity; hypotensive activity (rats [6]; 50 mg/kg): significant hypotensive activity; % decrease in mean blood pressure at 1 hour (rats [6]; 50 mg/kg, 1 hour): 11%; % decrease in mean blood pressure at 3 hours (rats [6]; 50 mg/kg, 3 hours): 13%; % decrease in mean blood pressure at 6 hours (rats [6]; 50 mg/kg, 6 hours): 24%
Insoluble | CCOC(=O)c1cnc2nc(SCc3ccccc3)nn2c1Cl [Compound 35, 2-benzylthio-6-carbethoxy-7-chloro-s-triazolo[1,5a]pyrimidine] |  |  |  | 
Insoluble | CCOC(=O)c1cnc2nc(SCc3ccccc3)nn2c1S [Compound 40, 2-BENZYLTHIO-6-CARBETHOXY-7-MERCAPTO-s-TRIAZOLO[1,5a] PYRIMIDINE] |  |  |  | 
Insoluble | CCOC(=O)c1cnc2nc(SCc3ccccc3)nn2c1NCc1ccccc1 [Compound 37] |  |  |  | 
